What was measured:
Acinetobacter baumannii [1] = assay: Antibacterial activity against multidrug-resistant Acinetobacter baumannii ATCC BAA-1605 assessed as inhibition of biofilm growth after 24 hrs by crystal violet reporter assay; assay type: functional, organism-based
Acinetobacter baumannii [2] = assay: Antibacterial activity against multidrug-resistant Acinetobacter baumannii ATCC BAA-1605 assessed as growth inhibition by broth microdilution method; assay type: functional
Staphylococcus aureus [3] = assay: Antibacterial activity against methicillin-resistant Staphylococcus aureus ATCC BAA-44 assessed as inhibition of biofilm growth after 24 hrs by crystal violet reporter assay; assay type: functional, organism-based; conditions: ATCC BAA-44, 24 h
Staphylococcus aureus [4] = assay: Antibacterial activity against methicillin-resistant Staphylococcus aureus ATCC BAA-44 assessed as growth inhibition by broth microdilution method; assay type: functional
Staphylococcus aureus [5] = assay: Antibacterial activity against methicillin-resistant Staphylococcus aureus ATCC BAA-44 assessed as reduction of oxacillin MIC at 25% MIC by broth microdilution method relative to oxacillin-treated control; assay type: functional
Staphylococcus aureus [6] = assay: Antibacterial activity against methicillin-resistant Staphylococcus aureus ATCC BAA-44 assessed as dispersion of preformed biofilm after 24 hrs by crystal violet reporter assay; assay type: functional, organism-based; conditions: ATCC BAA-44, 24 h
[7] = Acinetobacter baumannii, ATCC BAA-1605, 24 h, read-out: IC50

Row | SMILES | IC50 (Acinetobacter baumannii [1]) | MIC (Acinetobacter baumannii [2]) [µM] | IC50 (Staphylococcus aureus [3]) [µM] | MIC (Staphylococcus aureus [4]) [µM] | fold change (FC) (Staphylococcus aureus [5]) | IC50 (Acinetobacter baumannii [1]; [7]) [µM] | EC50 (Staphylococcus aureus [6]) [µM]
1 | CCCCCc1ccc(C(=O)NCCn2cc(CCCCCc3cn(C(C)C)c(N)n3)nn2)cc1.Cl | ND(toxic) | > 200 | > 100 | 200 | 0 |  | 
2 | CCCCCc1ccc(C(=O)NCCn2cc(CCCCCc3cn(C4CC4)c(N)n3)nn2)cc1.Cl | ND(toxic) | > 200 | > 100 | 100 | 2 |  | 
3 | CCCCCc1ccc(C(=O)NCCn2cc(CCCCCc3cn(Cc4ccccc4)c(N)n3)nn2)cc1.Cl |  | 100 | 7.16 | 12.5 | 0 | 33.9 | 39.6
4 | CCCCCc1ccc(C(=O)NCCn2cc(CCCCCc3cn(-c4ccccc4)c(N)n3)nn2)cc1.Cl |  | > 200 | 25.1 | 25 | 0 | 49.8 | 
5 | CCCCCc1ccc(C(=O)NCCn2cc(CCCCCc3cn(CCCC)c(N)n3)nn2)cc1.Cl |  | 100 | 10.8 | 25 | 0 | 53.8 | 
6 | CCCCCc1ccc(C(=O)NCCn2cc(CCCCCc3cn(C4CCCCC4)c(N)n3)nn2)cc1.Cl | ND(toxic) | 200 | 18.7 | 25 | 2 |  | 
7 | CCCCCc1ccc(C(=O)NCCn2cc(CCCCCc3cn(C4CCCC4)c(N)n3)nn2)cc1.Cl |  | 100 | 9.01 | 25 | 2 | 33.7 | 34.5
8 | CCCCCc1ccc(C(=O)NCCn2cc(CCCCCc3cn(CCc4ccccc4)c(N)n3)nn2)cc1.Cl |  | 100 | 9.9 | 25 | 0 | 39.2 | 33
9 | CCCCCCn1cc(CCCCCc2cn(CCNC(=O)c3ccc(CCCCC)cc3)nn2)nc1N.Cl |  | 100 | 6.2 | 12.5 | 0 | 26.2 | 41
10 | CCCCCc1ccc(C(=O)NCCn2cc(CCCCCc3cn(CCCCC)c(N)n3)nn2)cc1.Cl |  | 100 | 4.14 | 12.5 | 0 | 31.4 | 45.1
11 | CCCCCc1ccc(C(=O)NCCn2cc(CCCCCc3c[nH]c(N)n3)nn2)cc1.Cl |  |  |  |  | 4 |  | 
12 | CCCCCc1ccc(C(=O)NCCn2cc(CCCCCc3cn(CC(C)C)c(N)n3)nn2)cc1.Cl |  | 200 | 24 | 50 | 4 | 98.6 | 
13 | C=CCn1cc(CCCCCc2cn(CCNC(=O)c3ccc(CCCCC)cc3)nn2)nc1N.Cl | ND(toxic) | 200 | 13.2 | 50 | 2 |  | 

From ChEMBL document CHEMBL2331213, “A flexible approach to 1,4-di-substituted 2-aminoimidazoles that inhibit and disperse biofilms and potentiate the effects of β-lactams against multi-drug resistant bacteria” (Eur J Med Chem, 2013)
